{"source": "patent US20060069132A1", "about": "“Azolecarboxamide herbicides” (priority 2004, published 2006)", "key": {"giant foxtail (SETFA)": {"tested_on": "giant foxtail (SETFA)", "assay": "Test J Compounds 2 and 6 alone and in combination with other herbicides, foliage spray", "type": "in vivo, Setaria faberi", "set-up": "key: 0 = no effect, 100 = complete control", "conditions": "applied alone", "excerpt": "(§1) Seeds of test plants consisting of barnyardgrass (ECHCG; Echinochloa crus-galli (L.) Beauv.), blackgrass (ALOMY; Alopecurus myosuroides Huds.), Surinam grass (BRADC; Urochloa decumbens (Staph) R. D. Webster, previously named Brachiaria decumbens Stapf), cocklebur (XANST, Xanthium strumarium L.), corn (ZEAMD, Zea mays L. cv. ‘Pioneer 33G26’), large crabgrass (DIGSA, Digitaria sanguinalis (L.) Scop.), giant foxtail (SETFA, Setaria faberi Herrm.), lambsquarters (CHEAL, Chenopodium album L.), morningglory (IPOCO, Ipomoea coccinea L.), pigweed (AMARE, Amaranthus retroflexus L.), velvetleaf (ABUTH, Abutilon theophrasti Medik.) wheat (TRZAS, Triticum aestivum L. cv. ‘Recital’) and wild oat (AVEFA, Avena fatua L.) were planted in Redi-Earth® planting medium (Scotts Company, 14111 Scottslawn Road, Marysville, Ohio 43041) comprising spaghnum peat moss and vermiculite. Seeds of small-seeded species were planted about 1 cm deep; larger seeds were planted about 2.5 cm deep. Plants were grown in a greenhouse using supplemental lighting to maintain a photoperiod of about 14 hours; daytime and nighttime temperatures were about 24-30° C. and 22-25° C., respectively. Balanced fertilizer was applied through the watering system. […] Also listed in Table J are the expected effects for the mixtures calculated using Colby's Equation."}, "lambsquarters (CHEAL)": {"tested_on": "lambsquarters (CHEAL)", "assay": "Test J Compounds 2 and 6 alone and in combination with other herbicides, foliage spray", "type": "in vivo, Chenopodium album", "set-up": "key: % herbicidal effect (observed)", "conditions": "applied alone", "excerpt": "(§2) Colby's Equation was used to calculate the expected additive herbicidal effect of the mixtures of Compound 6 with Harmony® Extra (i.e. a 2:1 mixture by weight of thifensulfuron-methyl and tribenuron-methyl). […]\nas §1, with “vermiculite.” for “vermiculite. Seeds of small-seeded species were planted about 1 cm deep; larger seeds were planted about 2.5 cm deep. Plants were grown in a greenhouse using supplemental lighting to maintain a photoperiod of about 14 hours; daytime and nighttime temperatures were about 24-30° C. and 22-25° C., respectively. Balanced fertilizer was applied through the watering system.”"}, "corn (ZEAMD)": {"tested_on": "corn (ZEAMD)", "assay": "Test J Compounds 2 and 6 alone and in combination with other herbicides, foliage spray", "type": "in vivo, Zea mays", "set-up": "key: percentage herbicidal effect (observed)", "conditions": "applied alone", "excerpt": "as §2\nas §1, with “vermiculite.” for “vermiculite. Seeds of small-seeded species were planted about 1 cm deep; larger seeds were planted about 2.5 cm deep. Plants were grown in a greenhouse using supplemental lighting to maintain a photoperiod of about 14 hours; daytime and nighttime temperatures were about 24-30° C. and 22-25° C., respectively. Balanced fertilizer was applied through the watering system.”"}, "annual blugrass": {"tested_on": "annual blugrass", "assay": "Test F pre-/postemergence herbicide test", "type": "in vivo, Poa annua", "excerpt": "(§3) Seeds of plant species selected from annual blugrass (Poa annua L.), blackgrass (Alopecurus myosuroides Huds.), catchweed bedstraw (Gallium aparine L.), common chickweed (Stellaria media (L.) Vill./Cyr.), downy bromegrass (Bromus tectorum L.), green foxtail (Setaria viridis (L.) Beauv.), Italian ryegrass (Lolium multiflorum Lam.), kochia (Kochia scoparia (L.). Schrad.), lambsquarters (Chenopodium album L.), littleseed canarygrass (Phalaris minor Retz.), pigweed (Amaranthus retroflexus L.), Russian thistle (Salsola kali L. ssp. Ruthenica (Iljin) Soo), wild buckwheat (Polygonum convolvulus L.), wild mustard (Sinapis arvensis L.), wild oat (Avena fatua L.), windgrass (Apera spica-venti (L.) Beauv.), winter barley (Hordeum vulgare L.), and wheat (Triticum aestivum L.) were planted and treated preemergence with test chemicals formulated in a non-phytotoxic solvent mixture which included a surfactant.\n(§4) At the same time, plants selected from these crop and weed species were treated with postemergence applications of some of the test chemicals formulated in the same manner. Plants ranged in height from 2 to 18 cm (1- to 4-leaf stage) for postemergence treatments. Treated plants and controls were maintained in a greenhouse for 12 to 14 days, after which time all species were compared to controls and visually evaluated. Plant response ratings, summarized in Table F, are based on a scale of 0 to 100 where 0 is no effect and 100 is complete control. A dash (-) response means no test result."}, "pigweed": {"tested_on": "pigweed", "assay": "Test F pre-/postemergence herbicide test", "type": "in vivo, Amaranthus retroflexus", "excerpt": "as §3, §4"}, "Italian ryegrass": {"tested_on": "Italian ryegrass", "assay": "Test F pre-/postemergence herbicide test", "type": "in vivo, Lolium multiflorum", "excerpt": "as §3, §4"}, "winter barley": {"tested_on": "winter barley", "assay": "Test F pre-/postemergence herbicide test", "type": "in vivo, Hordeum vulgare", "excerpt": "as §3, §4"}, "wild mustard": {"tested_on": "wild mustard", "assay": "Test F pre-/postemergence herbicide test", "type": "in vivo, Sinapis arvensis", "excerpt": "as §3, §4"}}}
{"smiles": "CCn1nc(C(C)(C)C)cc1C(=O)Nc1cc(C(=O)N(C)C)ccc1F", "note": "[Compound 6, N-[5-[(dimethylamino)carbonyl]-2-fluorophenyl]-3-(1,1-dimethylethyl)-1-ethyl-1H-pyrazole-5-carboxamide]", "values": [{"measurement": "SETFA Obsd.", "setting": "giant foxtail (SETFA); 62 g a.i./ha", "value": 15}, {"measurement": "SETFA Obsd.", "setting": "giant foxtail (SETFA); 125 g a.i./ha", "value": 33}, {"measurement": "CHEAL Obsd.", "setting": "lambsquarters (CHEAL); 62 g a.i./ha", "value": 43}, {"measurement": "CHEAL Obsd.", "setting": "lambsquarters (CHEAL); 125 g a.i./ha", "value": 68}, {"measurement": "ZEAMD Obsd.", "setting": "corn (ZEAMD); 62 g a.i./ha", "value": 22}, {"measurement": "ZEAMD Obsd.", "setting": "corn (ZEAMD); 125 g a.i./ha", "value": 28}]}
{"smiles": "CCn1nc(C(C)(C)C)cc1C(=O)Nc1cc(C(=O)OC(C)C)c(F)cc1F", "note": "[Compound 248]", "values": [{"measurement": "Plant response rating (0-100), Bluegrass", "setting": "annual blugrass; Postemergence, 31 g ai/ha", "value": 50}, {"measurement": "Plant response rating (0-100), Bluegrass", "setting": "annual blugrass; Postemergence, 62 g ai/ha", "value": 50}, {"measurement": "Plant response rating (0-100), Bluegrass", "setting": "annual blugrass; Postemergence, 125 g ai/ha", "value": 60}, {"measurement": "Plant response rating (0-100), Bluegrass", "setting": "annual blugrass; Postemergence, 250 g ai/ha", "value": 70}, {"measurement": "Plant response rating (0-100), Bluegrass", "setting": "annual blugrass; Preemergence, 31 g ai/ha", "value": 70}, {"measurement": "Plant response rating (0-100), Bluegrass", "setting": "annual blugrass; Preemergence, 62 g ai/ha", "value": 70}, {"measurement": "Plant response rating (0-100), Bluegrass", "setting": "annual blugrass; Preemergence, 125 g ai/ha", "value": 100}, {"measurement": "Plant response rating (0-100), Bluegrass", "setting": "annual blugrass; Preemergence, 250 g ai/ha", "value": 100}, {"measurement": "Plant response rating (0-100), Pigweed", "setting": "pigweed; Postemergence, 31 g ai/ha", "value": 65}, {"measurement": "Plant response rating (0-100), Pigweed", "setting": "pigweed; Postemergence, 62 g ai/ha", "value": 65}, {"measurement": "Plant response rating (0-100), Pigweed", "setting": "pigweed; Postemergence, 125 g ai/ha", "value": 70}, {"measurement": "Plant response rating (0-100), Pigweed", "setting": "pigweed; Postemergence, 250 g ai/ha", "value": 70}, {"measurement": "Plant response rating (0-100), Pigweed", "setting": "pigweed; Preemergence, 31 g ai/ha", "value": 70}, {"measurement": "Plant response rating (0-100), Pigweed", "setting": "pigweed; Preemergence, 62 g ai/ha", "value": 75}, {"measurement": "Plant response rating (0-100), Pigweed", "setting": "pigweed; Preemergence, 125 g ai/ha", "value": 95}, {"measurement": "Plant response rating (0-100), Pigweed", "setting": "pigweed; Preemergence, 250 g ai/ha", "value": 95}, {"measurement": "Plant response rating (0-100), Ryegrass, Italian", "setting": "Italian ryegrass; Postemergence, 31 g ai/ha", "value": 45}, {"measurement": "Plant response rating (0-100), Ryegrass, Italian", "setting": "Italian ryegrass; Postemergence, 62 g ai/ha", "value": 55}, {"measurement": "Plant response rating (0-100), Ryegrass, Italian", "setting": "Italian ryegrass; Postemergence, 125 g ai/ha", "value": 60}, {"measurement": "Plant response rating (0-100), Ryegrass, Italian", "setting": "Italian ryegrass; Postemergence, 250 g ai/ha", "value": 65}, {"measurement": "Plant response rating (0-100), Ryegrass, Italian", "setting": "Italian ryegrass; Preemergence, 31 g ai/ha", "value": 30}, {"measurement": "Plant response rating (0-100), Ryegrass, Italian", "setting": "Italian ryegrass; Preemergence, 62 g ai/ha", "value": 50}, {"measurement": "Plant response rating (0-100), Ryegrass, Italian", "setting": "Italian ryegrass; Preemergence, 125 g ai/ha", "value": 50}, {"measurement": "Plant response rating (0-100), Ryegrass, Italian", "setting": "Italian ryegrass; Preemergence, 250 g ai/ha", "value": 60}, {"measurement": "Plant response rating (0-100), Barley, Winter", "setting": "winter barley; Postemergence, 31 g ai/ha", "value": 25}, {"measurement": "Plant response rating (0-100), Barley, Winter", "setting": "winter barley; Postemergence, 62 g ai/ha", "value": 30}, {"measurement": "Plant response rating (0-100), Barley, Winter", "setting": "winter barley; Postemergence, 125 g ai/ha", "value": 30}, {"measurement": "Plant response rating (0-100), Barley, Winter", "setting": "winter barley; Postemergence, 250 g ai/ha", "value": 40}, {"measurement": "Plant response rating (0-100), Barley, Winter", "setting": "winter barley; Preemergence, 31 g ai/ha", "value": 0}, {"measurement": "Plant response rating (0-100), Barley, Winter", "setting": "winter barley; Preemergence, 62 g ai/ha", "value": 0}, {"measurement": "Plant response rating (0-100), Barley, Winter", "setting": "winter barley; Preemergence, 125 g ai/ha", "value": 0}, {"measurement": "Plant response rating (0-100), Barley, Winter", "setting": "winter barley; Preemergence, 250 g ai/ha", "value": 35}, {"measurement": "Plant response rating (0-100), Mustard, Wild", "setting": "wild mustard; Postemergence, 31 g ai/ha", "value": 30}, {"measurement": "Plant response rating (0-100), Mustard, Wild", "setting": "wild mustard; Postemergence, 62 g ai/ha", "value": 40}, {"measurement": "Plant response rating (0-100), Mustard, Wild", "setting": "wild mustard; Postemergence, 125 g ai/ha", "value": 60}, {"measurement": "Plant response rating (0-100), Mustard, Wild", "setting": "wild mustard; Postemergence, 250 g ai/ha", "value": 60}, {"measurement": "Plant response rating (0-100), Mustard, Wild", "setting": "wild mustard; Preemergence, 31 g ai/ha", "value": 40}, {"measurement": "Plant response rating (0-100), Mustard, Wild", "setting": "wild mustard; Preemergence, 62 g ai/ha", "value": 50}, {"measurement": "Plant response rating (0-100), Mustard, Wild", "setting": "wild mustard; Preemergence, 125 g ai/ha", "value": 50}, {"measurement": "Plant response rating (0-100), Mustard, Wild", "setting": "wild mustard; Preemergence, 250 g ai/ha", "value": 50}]}
